The source of these data is patent publication US20050209278A1, “Piperidinyl- and piperazinyl-sulfonylmethyl hydroxamic acids and their use as protease inhibitors” (priority 2002, published 2005).

The target of test [1] is T1, MMP-9 (Homo sapiens, UniProt P14780).
T1 construct: made in house; host or cells: MMP-9-transfected HT1080 cells (spent media)
Put plainly: In vitro MMP inhibition, Ki determination (fluorogenic substrate II). The class given is biochemical. The note with it: value not in parenthesis. The essentials:
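HT1080-derived MMP-9, activated with APMA, trypsin or MMP-3, incubated 1 hr at room temperature with inhibitor and 4 μM fluorogenic substrate II (at or below Km) in pH 7.5 Tris/NaCl/CaCl2 buffer; ex 330/em 420 nm. Ki from Morrison-equation regression, without substrate correction.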

In test [2] the target is T2, MMP-14 (Homo sapiens, UniProt P50281).
T2 construct: The catalytic domain enzyme was expressed in E. coli inclusion bodies, solubilized in urea; made in house
The description is as above. The format is biochemical. The note with it: value not in parenthesis; read-out: MMP-14 Ki. The essentials: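 Apparent Ki was fitted with Morrison's equation from reaction rates at a single low enzyme level. Enzyme was APMA- or trypsin-activated refolded MMP-14 catalytic domain, buffered at pH 7.5 with 10 mM CaCl2.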

Structures are written as SMILES. Where only a bound is given, the exact number is not on record here.

T1 sequence (P14780 107-707 limits assumed): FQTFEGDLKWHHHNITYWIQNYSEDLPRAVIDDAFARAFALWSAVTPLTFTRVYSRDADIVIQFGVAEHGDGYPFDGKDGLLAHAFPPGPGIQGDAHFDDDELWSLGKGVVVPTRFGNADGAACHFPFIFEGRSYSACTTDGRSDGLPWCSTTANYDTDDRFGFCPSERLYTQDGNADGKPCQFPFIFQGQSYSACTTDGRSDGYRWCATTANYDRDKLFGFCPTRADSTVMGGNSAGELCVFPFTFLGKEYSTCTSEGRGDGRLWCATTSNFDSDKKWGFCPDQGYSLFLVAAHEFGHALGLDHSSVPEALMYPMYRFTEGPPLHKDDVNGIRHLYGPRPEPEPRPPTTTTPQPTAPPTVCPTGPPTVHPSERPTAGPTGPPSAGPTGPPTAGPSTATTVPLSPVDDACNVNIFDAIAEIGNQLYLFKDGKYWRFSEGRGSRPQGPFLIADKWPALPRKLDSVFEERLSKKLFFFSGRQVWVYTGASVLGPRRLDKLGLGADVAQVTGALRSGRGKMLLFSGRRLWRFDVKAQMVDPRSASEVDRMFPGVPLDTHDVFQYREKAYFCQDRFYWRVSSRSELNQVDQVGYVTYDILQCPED

`CCCCCc1cnc(N2CCN(S(=O)(=O)C3(C(=O)NO)CCOCC3)CC2)cn1` [Example 219]: the figures for the inhibition constant Ki in test [1] and in test [2] were 0.46 nM and 3210 nM, respectively.

For `CCCCOc1ccc(N2CCN(S(=O)(=O)C3(C(=O)NO)CCN(c4ccc5c(c4)OCO5)CC3)CC2)cc1` [Example 221], the figures for the inhibition constant Ki in test [1] and in test [2] were 14.6 nM and > 10000 nM, respectively.

For `CCCCOc1ccc(N2CCN(S(=O)(=O)C3(C(=O)NO)CCS(=O)(=O)CC3)CC2)cc1` [Example 222], the inhibitory constant (Ki) (usually a dissociation constant, usually derived from enzyme kinetics or from competition with a known ligand) was 21.5 nM in test [1] and > 10000 nM in test [2].

Turning to `CCCCOc1ccc(N2CCN(S(=O)(=O)C3(C(=O)NO)CCN(c4ccsc4)CC3)CC2)cc1` [Example 223], the Ki in test [1] is 66.1 nM; in test [2] it was 7100 nM.

`CCCCOc1ccc(N2CCN(S(=O)(=O)C3(C(=O)NO)CCN(c4ccc(C#N)cc4)CC3)CC2)cc1` [Example 225]: the values for the inhibitory constant (Ki) in test [1] and in test [2] were 28.1 nM and > 10000 nM, respectively.

Turning to `CCCCOc1ccc(N2CCN(S(=O)(=O)C3(C(=O)NO)CCN(c4cccc(C)c4)CC3)CC2)cc1` [Example 226], the inhibition constant (Ki) was 19 nM in test [1] and > 10000 nM in test [2].

On to `COCCSc1ccc(N2CCN(S(=O)(=O)C3(C(=O)NO)CCOCC3)CC2)cc1` [Example 227], for which the Ki in test [1] was 17.2 nM; in test [2] it was 1680 nM.

On to `CCCCOc1ccc(N2CCN(S(=O)(=O)C3(C(=O)NO)CCN(c4ccc(OC)c(OC)c4)CC3)CC2)cc1` [Example 229], for which the Ki in test [1] was 4.64 nM; in test [2], 7880 nM.

With `CCCCOc1ccc(N2CCN(S(=O)(=O)C3(C(=O)NO)CCN(C(=O)N4CCN(C)CC4)CC3)CC2)cc1` [Example 230], the Ki is 0.87 nM in test [1] and 2510 nM in test [2].

Consider `CCCCOc1ccc(N2CCN(S(=O)(=O)C3(C(=O)NO)CCN(C(=O)N4CCCC4)CC3)CC2)cc1` [Example 231], for which the inhibition constant Ki in test [1] came out at 0.71 nM; in test [2] it was 1530 nM.

As to `CCCCOc1ccc(N2CCN(S(=O)(=O)C3(C(=O)NO)CCSCC3)CC2)cc1` [Example 232], the Ki is 2.3 nM in test [1] and 3510 nM in test [2].

Regarding `CCCCOc1ccc(N2CCN(S(=O)(=O)C3(C(=O)NO)CCN(CCN4CCOCC4)CC3)CC2)cc1` [Example 233], the Ki in test [1] was 0.972 nM; in test [2], 3080 nM.

Turning to `CCOCCSc1ccc(N2CCN(S(=O)(=O)C3(C(=O)NO)CCOCC3)CC2)cc1` [Example 234], the Ki in test [1] came to 33.6 nM; in test [2], 2880 nM.

Regarding `CCCCOc1ccc(N2CCN(S(=O)(=O)C3(C(=O)NO)CCN(CCN(CC)CC)CC3)CC2)cc1` [Example 235], the Ki was determined as 0.9 nM in test [1] and 3960 nM in test [2].

`CCCCCc1ccc(N2CCN(S(=O)(=O)C3(C(=O)NO)CCN(S(=O)(=O)N(C)C)CC3)CC2)cc1` [Example 236]: the inhibitory constant (Ki) in test [1] was 2.61 nM; in test [2], > 10000 nM.

For the molecule `CCCCCc1ccc(N2CCN(S(=O)(=O)C3(C(=O)NO)CCN(S(C)(=O)=O)CC3)CC2)cc1` [Example 237], the Ki in test [1] was found to be 2.79 nM; in test [2] it was 7120 nM.

As to `CCCCOc1ccc(N2CCN(S(=O)(=O)C3(C(=O)NO)CCN(CCCC(F)(F)F)CC3)CC2)cc1` [Example 238], the Ki in test [1] worked out at 2.49 nM; in test [2], 6040 nM.

With `CCCCCc1ccc(N2CCN(S(=O)(=O)C3(C(=O)NO)CCN(C(C)=O)CC3)CC2)cc1` [Example 239], the Ki worked out at 0.46 nM in test [1] and 1050 nM in test [2].

For the molecule `CCCCOc1ccc(N2CCN(S(=O)(=O)C3(C(=O)NO)CCN(C(=O)NC(C)(C)C)CC3)CC2)cc1` [Example 240], the inhibition constant Ki in test [1] was 1.03 nM; in test [2] it was 3960 nM.

Take `CCCCOc1ccc(N2CCN(S(=O)(=O)C3(C(=O)NO)CCN(c4ccc(N(C)C)cc4)CC3)CC2)cc1` [Example 241]: the inhibition constant (Ki) in test [1] was 4.74 nM; in test [2] it was > 10000 nM.

Take `CCCCOc1ccc(N2CCN(S(=O)(=O)C3(C(=O)NO)CCN(C(=O)N(CC)CC)CC3)CC2)cc1` [Example 242]: the Ki in test [1] came out at 1.14 nM; in test [2] it was 2390 nM.

As to `CCCCOc1ccc(N2CCN(S(=O)(=O)C3(C(=O)NO)CCN(C(=O)N4CCCCC4)CC3)CC2)cc1` [Example 243], the Ki in test [1] worked out at 0.7 nM; in test [2], 2050 nM.

`CCCCOc1ccc(N2CCN(S(=O)(=O)C3(C(=O)NO)CCN(C(=O)N(C(C)C)C(C)C)CC3)CC2)cc1` [Example 244]: the inhibition constant Ki turned out to be 3.9 nM in test [1] and 5310 nM in test [2].

As to `CCCCOc1ccc(N2CCN(S(=O)(=O)C3(C(=O)NO)CCN(Cc4nccn4C)CC3)CC2)cc1` [Example 245], the inhibition constant (Ki) in test [1] is 0.588 nM; in test [2], 2810 nM.

As to `CCCCOc1ccc(N2CCN(S(=O)(=O)C3(C(=O)NO)CCN(Cc4ccc(C)o4)CC3)CC2)cc1` [Example 246], the Ki in test [1] was 1.74 nM; in test [2], 5950 nM.

For `CCCCOc1ccc(N2CCN(S(=O)(=O)C3(C(=O)NO)CCN(Cc4ncc[nH]4)CC3)CC2)cc1` [Example 247], the results for the Ki in test [1] and in test [2] were 0.718 nM and 1980 nM, respectively.

On to `CCCCOc1ccc(N2CCN(S(=O)(=O)C3(C(=O)NO)CCN(c4ccc(OC)cc4)CC3)CC2)cc1` [Example 249], for which the figures for the Ki in test [1] and in test [2] were 11.3 nM and > 10000 nM, respectively.
